# Measured values published in PubChem BioAssay AID1963986 (Molecular Pharmacology Branch, DTP, NCI, 2024).
# Tested on: 171881-019-R-J1-PDC tumor spheroid viability
# Assay: Anticancer human tumor 171881-019-R-J1-PDC patient-derived invasive breast carcinoma cell line growth inhibition [PI3K]
# Conditions: spheroids with HUVEC and MSC; for IC50: curve of first compound; for viability, T/C: stronger effect = lower value
# Outline: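 Three cell types, namely tumor cells, endothelial cells and mesenchymal stem cells, formed each spheroid. Combinations with four PI3K inhibitors were screened at clinically achievable concentrations decreasing by half-log, and spheroid viability was recorded.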
# [1] = second compound 0.00316 µM, first compound 0.0316 µM
# [2] = second compound 0.00316 µM, first compound 0.1 µM
# [3] = second compound 0.00316 µM, first compound 0.316 µM
# [4] = second compound 0.00316 µM, first compound 1 µM
# [5] = second compound 0.00316 µM, first compound 3.16 µM
# [6] = second compound 0.00316 µM, first compound 10 µM
# [7] = second compound 0.01 µM, first compound 0.0316 µM
# [8] = second compound 0.01 µM, first compound 0.1 µM
# [9] = second compound 0.01 µM, first compound 0.316 µM
# [10] = second compound 0.01 µM, first compound 1 µM
# [11] = second compound 0.01 µM, first compound 3.16 µM
# [12] = second compound 0.01 µM, first compound 10 µM
# [13] = second compound 0.0316 µM, first compound 0.0316 µM
# [14] = second compound 0.0316 µM, first compound 0.1 µM
# [15] = second compound 0.0316 µM, first compound 0.316 µM
# [16] = second compound 0.0316 µM, first compound 1 µM
# [17] = second compound 0.0316 µM, first compound 3.16 µM
# [18] = second compound 0.0316 µM, first compound 10 µM
# [19] = second compound 0.1 µM, first compound 0.0316 µM
# [20] = second compound 0.1 µM, first compound 0.1 µM
# [21] = second compound 0.1 µM, first compound 0.316 µM
# [22] = second compound 0.1 µM, first compound 1 µM
# [23] = second compound 0.1 µM, first compound 3.16 µM
# [24] = second compound 0.1 µM, first compound 10 µM
# [25] = second compound 0.316 µM, first compound 0.0316 µM
# [26] = second compound 0.316 µM, first compound 0.1 µM
# [27] = second compound 0.316 µM, first compound 0.316 µM
# [28] = second compound 0.316 µM, first compound 1 µM
# [29] = second compound 0.316 µM, first compound 3.16 µM
# [30] = second compound 0.316 µM, first compound 10 µM
# [31] = second compound 1 µM, first compound 0.0316 µM
# [32] = second compound 1 µM, first compound 0.1 µM
# [33] = second compound 1 µM, first compound 0.316 µM
# [34] = second compound 1 µM, first compound 1 µM
# [35] = second compound 1 µM, first compound 3.16 µM
# [36] = second compound 1 µM, first compound 10 µM
# 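Further: spheroids exposed to compound for 7 days before viability read.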
# 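Wherever viability, T/C is given: 100% = DMSO vehicle-treated spheroids.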
structure (smiles),measurement,setting,value
CC(C)NCC(C(=O)N1CCN(c2ncnc3c2C(C)CC3O)CC1)c1ccc(Cl)cc1 (stereo unspecified) + COc1c(OCCCN2CCOCC2)ccc2c3n(c(=NC(=O)c4cnc(N)nc4)nc12)CCN3,IC50,second compound 0.00316 µM,0.2 µM
same,IC50,second compound 0.01 µM,< 0.0316 µM
same,IC50,second compound 0.0316 µM,< 0.0316 µM
same,IC50,second compound 0.1 µM,< 0.0316 µM
same,IC50,second compound 0.316 µM,< 0.0316 µM
same,IC50,second compound 1 µM,< 0.0316 µM
same,"viability, T/C",[1],63.8%
same,"viability, T/C",[2],57%
same,"viability, T/C",[3],44.8%
same,"viability, T/C",[4],27.6%
same,"viability, T/C",[5],11.6%
same,"viability, T/C",[6],8.17%
same,"viability, T/C",[7],48.5%
same,"viability, T/C",[8],47%
same,"viability, T/C",[9],36.4%
same,"viability, T/C",[10],24.1%
same,"viability, T/C",[11],12.4%
same,"viability, T/C",[12],8.98%
same,"viability, T/C",[13],25%
same,"viability, T/C",[14],24.9%
same,"viability, T/C",[15],25.8%
same,"viability, T/C",[16],14.4%
same,"viability, T/C",[17],8.88%
same,"viability, T/C",[18],5.68%
same,"viability, T/C",[19],7.43%
same,"viability, T/C",[20],8.22%
same,"viability, T/C",[21],8.03%
same,"viability, T/C",[22],6.41%
same,"viability, T/C",[23],5.14%
same,"viability, T/C",[24],3.1%
same,"viability, T/C",[25],1.9%
same,"viability, T/C",[26],2.03%
same,"viability, T/C",[27],2.26%
same,"viability, T/C",[28],2.16%
same,"viability, T/C",[29],1.57%
same,"viability, T/C",[30],1.13%
same,"viability, T/C",[31],0.99%
same,"viability, T/C",[32],1.4%
same,"viability, T/C",[33],1.49%
same,"viability, T/C",[34],1.35%
same,"viability, T/C",[35],1.05%
same,"viability, T/C",[36],0.68%
CCN1CCN(Cc2ccc(Nc3ncc(F)c(-c4cc(F)c5nc(C)n(C(C)C)c5c4)n3)nc2)CC1 + COc1c(OCCCN2CCOCC2)ccc2c3n(c(=NC(=O)c4cnc(N)nc4)nc12)CCN3,IC50,second compound 0.00316 µM,> 1 µM
same,IC50,second compound 0.01 µM,> 1 µM
same,IC50,second compound 0.0316 µM,< 0.00316 µM
same,IC50,second compound 0.1 µM,< 0.00316 µM
same,IC50,second compound 0.316 µM,< 0.00316 µM
same,IC50,second compound 1 µM,< 0.00316 µM
same,"viability, T/C","second compound 0.00316 µM, first compound 0.00316 µM",71.9%
same,"viability, T/C","second compound 0.00316 µM, first compound 0.01 µM",73.1%
same,"viability, T/C",[1],83.8%
same,"viability, T/C",[2],80.4%
same,"viability, T/C",[3],93.8%
same,"viability, T/C",[4],99.6%
same,"viability, T/C","second compound 0.01 µM, first compound 0.00316 µM",48.9%
same,"viability, T/C","second compound 0.01 µM, first compound 0.01 µM",56.9%
same,"viability, T/C",[7],53.6%
same,"viability, T/C",[8],63.8%
same,"viability, T/C",[9],69%
same,"viability, T/C",[10],83.2%
same,"viability, T/C","second compound 0.0316 µM, first compound 0.00316 µM",27.4%
same,"viability, T/C","second compound 0.0316 µM, first compound 0.01 µM",31.5%
same,"viability, T/C",[13],33.8%
same,"viability, T/C",[14],36.9%
same,"viability, T/C",[15],44.6%
same,"viability, T/C",[16],50.6%
same,"viability, T/C","second compound 0.1 µM, first compound 0.00316 µM",10.5%
same,"viability, T/C","second compound 0.1 µM, first compound 0.01 µM",10.2%
same,"viability, T/C",[19],12.2%
same,"viability, T/C",[20],12.8%
same,"viability, T/C",[21],16%
same,"viability, T/C",[22],23.8%
same,"viability, T/C","second compound 0.316 µM, first compound 0.00316 µM",2.23%
same,"viability, T/C","second compound 0.316 µM, first compound 0.01 µM",2.11%
same,"viability, T/C",[25],2.24%
same,"viability, T/C",[26],2.94%
same,"viability, T/C",[27],4.39%
same,"viability, T/C",[28],7.79%
same,"viability, T/C","second compound 1 µM, first compound 0.00316 µM",0.86%
same,"viability, T/C","second compound 1 µM, first compound 0.01 µM",1.08%
same,"viability, T/C",[31],1.81%
same,"viability, T/C",[32],1.03%
same,"viability, T/C",[33],1.58%
same,"viability, T/C",[34],2.28%
Cn1ncc(Cl)c1-c1cc(C(=O)NC(CN)Cc2cccc(F)c2)sc1Cl (stereo unspecified) + COc1c(OCCCN2CCOCC2)ccc2c3n(c(=NC(=O)c4cnc(N)nc4)nc12)CCN3,IC50,second compound 0.00316 µM,0.0745 µM
same,IC50,second compound 0.01 µM,< 0.0316 µM
same,IC50,second compound 0.0316 µM,< 0.0316 µM
same,IC50,second compound 0.1 µM,< 0.0316 µM
same,IC50,second compound 0.316 µM,< 0.0316 µM
same,IC50,second compound 1 µM,< 0.0316 µM
same,"viability, T/C",[1],63.8%
same,"viability, T/C",[2],46.4%
same,"viability, T/C",[3],27.6%
same,"viability, T/C",[4],17.7%
same,"viability, T/C",[5],11.5%
same,"viability, T/C",[6],3.72%
same,"viability, T/C",[7],48.2%
same,"viability, T/C",[8],37.2%
same,"viability, T/C",[9],23.7%
same,"viability, T/C",[10],16.4%
same,"viability, T/C",[11],9.82%
same,"viability, T/C",[12],4.66%
same,"viability, T/C",[13],24.1%
same,"viability, T/C",[14],22%
same,"viability, T/C",[15],15.6%
same,"viability, T/C",[16],11.3%
same,"viability, T/C",[17],7.85%
same,"viability, T/C",[18],4.52%
same,"viability, T/C",[19],8.56%
same,"viability, T/C",[20],6.38%
same,"viability, T/C",[21],6.32%
same,"viability, T/C",[22],5.69%
same,"viability, T/C",[23],4.46%
same,"viability, T/C",[24],2.26%
same,"viability, T/C",[25],2.05%
same,"viability, T/C",[26],1.87%
same,"viability, T/C",[27],1.74%
same,"viability, T/C",[28],1.64%
same,"viability, T/C",[29],1.47%
same,"viability, T/C",[30],1.92%
same,"viability, T/C",[31],0.97%
same,"viability, T/C",[32],1.14%
same,"viability, T/C",[33],1.37%
same,"viability, T/C",[34],0.72%
same,"viability, T/C",[35],0.77%
same,"viability, T/C",[36],0.22%
